Here are results for three compounds from article PMC4976923, “Potent Allosteric Dengue Virus NS5 Polymerase Inhibitors: Mechanism of Action and Resistance Profiling” (PLoS Pathogens, 2016).

The structures appear in SMILES notation.

By IC50 is commonly meant the point on the concentration scale where inhibition reaches its midpoint. A word on the EC50: it is the concentration at which the effect is half-maximal.

In experiment [1] the target is T1, DENV1 FL NS5 (Dengue virus type 1, UniProt P17763).
T1 construct: 100 nM DENV FL NS5 protein was added; made in house
As to the kind of experiment: DENV1 FL NS5 de novo initiation FAPA assay. Format: biochemical. The following applies: one experiment; read-out: DENV FL NS5 de novo initiation FAPA, IC50, DENV1. As to the method:
DENV1-4 FL NS5 dnI assays were performed as described previously. Briefly, compounds from 0–20 or -100 μM concentrations are two-fold serially diluted into 384-well black opaque plates (Corning Costar), after which 100 nM DENV FL NS5 protein was added and the plates incubated at RT for 20 min. RNA and ATTO-CTP, ATP, GTP and UTP were then added and the plates incubated for another 120 min. Reactions were stopped with buffer containing 25 nM CIP, re- incubated at RT for 60 min and read on a Tecan Safire II microplate reader. For order-of-addition experiments, DENV4 FL NS5 was incubated for one hour at RT with RNA, ATP, and GTP or RNA, ATP, GTP and ATTO-CTP, followed by exposure to serially diluted compounds for 20 min at RT. The missing components (ATTO-CTP and UTP or UTP alone) were added and the reactions continued for 120 min after which STOP buffer was added as before. All datapoints were performed in duplicate wells. Each compound was tested at least twice.
2 Co mpound testing with DENV dn I FAPA assays. Final dn I assa y reaction mixtures
3 contained 100 nM DENV 5 ´UTR-L-3´UTR IVT RNA, 20 µ M ATP, 20 µM GTP, 20 µM
4 UTP, 5 µM ATTO -CTP, and 100 nM of DENV FL NS5 protein in 15 µl in assa y buffer
5 comprising 50 mM Tris/ HCl, pH 7.5, 10 mM KCl, 1 mM MgCl2, 0.3 mM MnCl2 (DENV2
6 and 4) or 1 mM MnCl 2 (DENV1 and 3), 0.001% Triton- X-100 and 10 µ M cystein e [ 1] . To
7 perform dose-respons e inhibition measurements, compounds from 0- 20 or - 100 µM
8 concentr ations are two -fold seriall y diluted into 384-well black opaqu e plat es (Corning
9 Costar), after which 100 nM DENV FL NS5 protein was added into resp ect ive wells. The
10 plates wer e sealed, b riefl y shak en and centrif uged at 1500 rpm for 30 sec and incubated at RT
11 for 15 min. Thereafter,RNA and ATTO -CTP, ATP, GTP and UTP were added to the wells to
12 start the reactions. The pl ates wer e re-seal ed, shaken and centrifuged as before, followed b y
13 incubation RT for 120 min. Reactions were stopped by addition of 10 µl of 2.5X STOP
14 buffer (200 mM NaCl, 25 mM MgCl2, 1.5M DEA, pH 10; Promega) with 25 nM calf
15 intestinal phosphatase (CIP), re- incubation at RT for 60 min and read on a Tecan Safire II
16 microplate reader. For o r der-of-addition experiments, DENV4 FL NS5 was incubated for one
17 hour at RT with RNA, ATP, and GTP or RNA, ATP, GTP and ATTO-CTP, followed by
18 exposure to seriall y dilut ed compounds for 20 mi n at RT. The missing components (ATTO-
19 CTP and UTP or UTP alone) were added and the reactions continued for 120 min after which
20 STOP buffer was added as before. All datapoints were performed in duplicate wells. Each
21 compound was tested at l east twice.
23 Compound testing in DENV1-4 infected cells by high content imaging. Approximatel y 7
24 × 10^3 A549 cells per well were s eeded into 384-well plates in Ham’s F-12K medium

For experiment [2], the system named is DENV1, strain MY97-10245. The settings on record: A549; 48 hr; read-out: DENV1 HCI, EC50; cited from earlier work.
For experiment [3], the system named is HCV replicon. Kind of experiment: HCV replicon firefly luciferase assay. It is filed as cell-based, hepatitis C virus (HCV) genotype 1b. The following applies: Hepatitis C virus; HuH-7; 48 hr; tested up to 25 μM. As to the method: A549, BHK-21 and Huh7 cells bearing stable DENV2 sub-genomic replicon or transiently electroporated DENV2-NGC replicon or infectious virus cDNAs were seeded into 384-well microplate (3,000 cells per well). After over-night incubation at 37°C with 5% CO2, the cells were treated with 2-fold serially diluted compounds, starting from 20 or 50 μM. At 48 hr of post-incubation, renilla luciferase activities were measured with the ViviRen live-cell substrate (Promega, USA) according to the manufacturer’s protocol. CellTiter-Glo reagent (Promega, USA) was then added to determine cytotoxic effects of compounds. For the HCV replicon assay, Huh-7.5 cells harboring the HCV replicon were seeded into a 96-well microplate (20,000 cells per well). At 48 hr after compound treatment, cells were assayed for firefly luciferase activity by using a Bright-Glo luciferase assay (Promega, USA). NITD-008, a nucleoside inhibitor of DENV and HCV was added as a control.
1 containing 2 % FBS, 1mM L-glutamine and 1 % penicillin-streptom ycin and incubated over-
At 24 h post-seeding, cells were inf ected with DENV1-4 at […]
8 DENV envelope protein ) and DRAQ5 (for nucl ear DNA) . Quantifications of DENV
9 envelope protein were determined using the Opera high content imaging s ystem and anal ysis […]
17 µM concentrations. At 48 hr of post-incubation, r enilla luciferas e activities were measured […]
For orientation: In antiviral work, replicon cells carry a viral genome segment that copies itself.

The subject of experiment [4] is DENV2-NGC replicon L512V/E802D. It is filed as cell-based. The settings on record: electroporated BHK-21; 2 days.

T1 sequence (P17763 2494-3392): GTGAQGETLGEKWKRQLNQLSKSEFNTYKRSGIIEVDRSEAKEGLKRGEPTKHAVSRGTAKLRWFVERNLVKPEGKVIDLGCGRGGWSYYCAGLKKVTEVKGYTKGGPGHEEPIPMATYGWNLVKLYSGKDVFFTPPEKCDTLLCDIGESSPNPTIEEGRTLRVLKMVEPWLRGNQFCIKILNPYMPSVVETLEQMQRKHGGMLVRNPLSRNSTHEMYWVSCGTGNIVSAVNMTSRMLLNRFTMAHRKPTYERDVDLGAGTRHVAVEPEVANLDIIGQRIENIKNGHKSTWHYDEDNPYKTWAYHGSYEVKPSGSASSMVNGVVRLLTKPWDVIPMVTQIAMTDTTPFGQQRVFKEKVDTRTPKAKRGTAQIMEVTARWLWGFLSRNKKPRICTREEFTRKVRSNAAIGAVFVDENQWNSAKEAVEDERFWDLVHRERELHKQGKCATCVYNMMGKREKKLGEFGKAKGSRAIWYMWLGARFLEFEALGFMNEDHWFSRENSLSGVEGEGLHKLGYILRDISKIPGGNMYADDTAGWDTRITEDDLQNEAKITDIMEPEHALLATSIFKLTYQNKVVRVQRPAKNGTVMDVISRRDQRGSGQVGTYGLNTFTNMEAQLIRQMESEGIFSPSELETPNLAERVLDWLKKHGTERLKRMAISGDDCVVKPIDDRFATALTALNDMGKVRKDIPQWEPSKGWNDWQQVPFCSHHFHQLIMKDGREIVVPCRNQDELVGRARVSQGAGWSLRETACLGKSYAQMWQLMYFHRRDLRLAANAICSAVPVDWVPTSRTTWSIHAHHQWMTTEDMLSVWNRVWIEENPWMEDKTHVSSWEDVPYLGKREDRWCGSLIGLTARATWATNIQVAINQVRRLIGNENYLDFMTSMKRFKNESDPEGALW

`COc1cccc(S(=O)(=O)NC(=O)c2cc(-c3ccc(C#CCO)s3)c(OC)cc2C)c1` [Compound 26i]: the IC50 in experiment [1] was found to be 0.024 µM.

For the compound `COc1cccc(S(=O)(=O)NC(=O)c2cc(-c3ccc(C#CCO)s3)c(OC)cc2OC)c1` [Compound 27], the values for the EC50 in experiment [2], in experiment [3] and in experiment [4] were 1.8 ± 0.1 µM, > 25 µM and 28.4 µM, respectively.

`COc1cc(OC)c(-c2ccc(C#CCO)s2)cc1C(=O)NS(=O)(=O)c1cccc2cccnc12` [Compound 29]: the EC50 is 6.3 ± 0.9 µM in experiment [2], > 25 µM in experiment [3] and 38.8 µM in experiment [4]. The half-inhibitory concentration (IC50) in experiment [1] came to 0.013 µM.
